Data published in paper PMC11061419, “Identification of novel small molecule inhibitors of twin arginine translocation (Tat) pathway and their effect on the control of Campylobacter jejuni in chickens” (Frontiers in Microbiology, 2024).

Tests used:
[1] = system: Commensal/beneficial gut bacteria (n = 7); assay: Activity spectrum against commensal/beneficial gut bacteria at 6.25 μg/mL; format: cell-based; conditions: 6.25 μg/mL SM; for Commensal/beneficial gut bacteria inhibited at 6.25 μg/mL (species): Ef Enterococcus faecalis, Lb Levilactobacillus brevis, LGG Lacticaseibacillus rhamnosus GG
Method: A similar experiment was performed with seven commensal/beneficial gut bacteria to determine species specificity of these SMs. In brief, an overnight suspension was normalized at 0.05 OD600 using the appropriate medium and challenged with 6.25 μg/mL of SM. Details about the strains and their growing conditions are shown in Supplementary Table S1. Medium alone and 1% DMSO were used as controls (N = 3 replicates per SM).

C. jejuni Au-24 = assay: Copper sulfate sensitivity dose–response assay in vitro (MIC/MBC); format: cell-based; conditions: Campylobacter jejuni; for MIC: AU24, read-out: MIC, Au-24 (Table S4); for MBC: AU24, 0.5 mM CuSO4, read-out: MBC, Au-24 (Table S5)
Method: (§1) Campylobacter jejuni 81–176 was the primary model strain used for the selection of the potential Tat-dependent inhibitors by high-throughput screening. C. jejuni 81–176 is resistant to 0.5 and 1 mM CuSO4 (Supplementary Figure S1). C. jejuni 81–176 tatC knockout mutant (C. jejuni ΔtatC) was used to confirm the Tat-dependent inhibitory effect of the selected SM. C. jejuni ΔtatC is susceptible to 0.5 mM and higher of CuSO4 ([Rajashekara et al., 2009]). The specificity of the Tat-dependent inhibitors was also tested on 11 additional Campylobacter strains (C. coli ATCC33559 and 10 other C. jejuni strains isolated from chickens) and 7 commensal/beneficial bacteria (Supplementary Table S1). The […] (Au-13, Au-20, Au-38, Au-39, Au-47, Au-50, Au-24, Au-32, Au-44, and Au-45) were selected based on their single nucleotide polymorphism (SNP)-type and percent of prevalence in chickens ([Merchant-Patel et al., 2008]; [Kumar et al., 2016]). Additional details about the bacterial strains are shown in Supplementary Table S1.
(§2) In total, 19 SMs were two-fold serially diluted to obtain a final SM concentration ranging from 6.25 to 0.012 μg/mL. C. jejuni 81–176 was then treated with a determined concentration of SM, as described in the copper sensitivity assay. […] The lowest bactericidal SM concentration was considered the MBC (no increase in OD600 over time and no viable cells were recovered on agar plate after challenge) (N = 3 replicates per SM). […] However, these SMs were two-fold serially diluted to obtain a final SM concentration ranging from 5 μg to 0.0625 μg for testing (N = two independent experiments with four technical replicate for each SM).

C. jejuni Au-32 = assay: as above; format: cell-based; conditions: Campylobacter jejuni; for MIC: AU32, read-out: MIC, Au-32 (Table S4); for MBC: AU32, 0.5 mM CuSO4, read-out: MBC, Au-32 (Table S5)
Method: as §1, §2

C. jejuni Au-20 = assay: as above; format: cell-based; conditions: Campylobacter jejuni; for MIC: AU20, read-out: MIC, Au-20 (Table S4); for MBC: AU20, 0.5 mM CuSO4, read-out: MBC, Au-20 (Table S5)
Method: as §1, §2

C. jejuni Au-47 = assay: as above; format: cell-based; conditions: Campylobacter jejuni; for MIC: AU47, read-out: MIC, Au-47 (Table S4); for MBC: AU47, 0.5 mM CuSO4, read-out: MBC, Au-47 (Table S5)
Method: as §1, §2

C. jejuni Au-38 = assay: as above; format: cell-based; conditions: Campylobacter jejuni; for MIC: AU38, read-out: MIC, Au-38 (Table S4); for MBC: AU38, 0.5 mM CuSO4, read-out: MBC, Au-38 (Table S5)
Method: as §1, §2

C. jejuni Au-50 = assay: as above; format: cell-based; conditions: Campylobacter jejuni; for MIC: AU50, read-out: MIC, Au-50 (Table S4); for MBC: AU50, 0.5 mM CuSO4, read-out: MBC, Au-50 (Table S5)
Method: as §1, §2

C. jejuni Au-44 = assay: as above; format: cell-based; conditions: Campylobacter jejuni; for MIC: AU44, read-out: MIC, Au-44 (Table S4); for MBC: AU44, 0.5 mM CuSO4, read-out: MBC, Au-44 (Table S5)
Method: as §1, §2

C. jejuni Au-39 = assay: as above; format: cell-based; conditions: Campylobacter jejuni; for MIC: AU39, read-out: MIC, Au-39 (Table S4); for MBC: AU39, 0.5 mM CuSO4, read-out: MBC, Au-39 (Table S5)
Method: as §1, §2

C. jejuni Au-45 = assay: as above; format: cell-based; conditions: Campylobacter jejuni; for MIC: AU45, read-out: MIC, Au-45 (Table S4); for MBC: AU45, 0.5 mM CuSO4, read-out: MBC, Au-45 (Table S5)
Method: as §1, §2

C. coli ATCC33559 = assay: as above; format: cell-based; conditions: Campylobacter coli; for MIC: ATCC33559, read-out: MIC, C. coli (Table S4); for MBC: ATCC33559, 0.5 mM CuSO4, read-out: MBC, C. coli (Table S5)
Method: as §1, §2

C. jejuni Au-13 = assay: as above; format: cell-based; conditions: Campylobacter jejuni; for MIC: AU13, read-out: MIC, Au-13 (Table S4); for MBC: AU13, 0.5 mM CuSO4, read-out: MBC, Au-13 (Table S5)
Method: as §1, §2

[2] = system: intracellular C. jejuni 81–176 in Caco-2 cells; assay: Copper sulfate sensitivity dose–response assay in infected Caco-2 colon epithelial cells; format: cell-based, Campylobacter jejuni; conditions: infected Caco-2 cells, 24 h, 0.5 mM CuSO4
Method: The intracellular reduction in C. jejuni in the presence of a given SM (T1-T8) and 0.5 mM CuSO4 were evaluated using Caco-2 cells, as previously described ([Kumar et al., 2016]; [Deblais et al., 2019]). In brief, cells were infected for 2 h using a multiplicity of infection (MOI) of 100. Infected cells were treated with SM at a final concentration ranging between 5 and 0.315 μg/mL and incubated at 37°C for 24 h in a humidified 5% CO2 incubator. Following incubation, cells were washed once with 1X PBS, lysed with 0.1% Triton-100X, serially 10-fold diluted in 1X PBS, and plated on MH agar plate. Plates were incubated in microaerophilic conditions at 42°C for 24 h, to determine the intracellular survival. Cells not infected and not treated and cells infected and treated with 1% DMSO were used as controls (N = two independent experiments with four technical replicate for each SM).

C. jejuni 81–176 = assay: Copper sulfate sensitivity dose–response assay in vitro (MIC/MBC); format: cell-based, Campylobacter jejuni; conditions: for MBC / MIC: Campylobacter jejuni, 0.5 mM CuSO4, head displaced; for MBC: read-out: MBC, C. jejuni (Table S5); for MIC: read-out: MIC, C. jejuni (Table S4); for C. jejuni 81–176 in vitro MBC: minimal bactericidal concentration in presence of 0.5 mM CuSO4; for C. jejuni 81–176 in vitro MIC: minimal bacteriostatic concentration in presence of 0.5 mM CuSO4
Method: as §2

[3] = system: Campylobacter spp. (12 strains); assay: Activity spectrum against Campylobacter strains at 6.25 μg/mL with 0.5 mM CuSO4; format: cell-based, Campylobacter jejuni, Campylobacter coli; conditions: 6.25 μg/mL SM
FDH = conditions: 1 mM of azide; ref Davies, 2017; cited from earlier work

CN(C)c1ccc(C(=O)Nc2ccc(CN3CCS(=O)(=O)CC3)cc2)cc1 [T3]
2/7: Growth inhibition at 6.25 μg/mL, Commensal/beneficial gut bacteria (strains inhibited/tested) [1]
1 µg/mL: MIC (C. coli ATCC33559)
5 µg/mL: C. jejuni 81–176 MBC in Caco2 cells [2]
>5 µg/mL: C. jejuni 81–176 in vitro MBC (C. jejuni 81–176)
LGG and Ef: Commensal/beneficial gut bacteria inhibited at 6.25 μg/mL (species) [1]
6.25 µg/mL: MIC (C. jejuni Au-24) | MIC (C. jejuni Au-32) | MIC (C. jejuni Au-20) | MIC (C. jejuni Au-47) | MIC (C. jejuni Au-38) | MIC (C. jejuni Au-50) | MIC (C. jejuni Au-44) | MIC (C. jejuni Au-39) | MIC (C. jejuni Au-45) | MIC (C. jejuni Au-13)
0.04 µg/mL: MIC (C. jejuni 81–176) | C. jejuni 81–176 in vitro MIC (C. jejuni 81–176)
12/12: Growth inhibition at 6.25 μg/mL, Campylobacter spp. (strains inhibited/tested) [3]
> 5 µg/mL: MBC (C. jejuni Au-24) | MBC (C. jejuni Au-32) | MBC (C. jejuni Au-20) | MBC (C. jejuni Au-47) | MBC (C. jejuni Au-38) | MBC (C. jejuni Au-50) | MBC (C. jejuni Au-44) | MBC (C. jejuni Au-39) | MBC (C. jejuni Au-45) | MBC (C. coli ATCC33559) | MBC (C. jejuni Au-13) | MBC (C. jejuni 81–176)

CCc1ccnc(NS(=O)(=O)c2ccc(C)c(Cl)c2)c1 [T4]
12/12: Growth inhibition at 6.25 μg/mL, Campylobacter spp. (strains inhibited/tested) [3]
>5 µg/mL: C. jejuni 81–176 in vitro MBC (C. jejuni 81–176)
1/7: Growth inhibition at 6.25 μg/mL, Commensal/beneficial gut bacteria (strains inhibited/tested) [1]
> 5 µg/mL: MBC (C. jejuni Au-24) | MBC (C. jejuni Au-32) | MBC (C. jejuni Au-20) | MBC (C. jejuni Au-47) | MBC (C. jejuni Au-38) | MBC (C. jejuni Au-50) | MBC (C. jejuni Au-44) | MBC (C. jejuni Au-39) | MBC (C. jejuni Au-45) | MBC (C. coli ATCC33559) | MBC (C. jejuni Au-13) | MBC (C. jejuni 81–176)
0.62 µg/mL: MIC (C. jejuni Au-20) | MIC (C. jejuni Au-47) | MIC (C. jejuni Au-13)
0.31 µg/mL: MIC (C. jejuni Au-50)
Ef: Commensal/beneficial gut bacteria inhibited at 6.25 μg/mL (species) [1]
0.01 µg/mL: MIC (C. jejuni 81–176) | C. jejuni 81–176 in vitro MIC (C. jejuni 81–176)
6.25 µg/mL: MIC (C. jejuni Au-24) | MIC (C. jejuni Au-32) | MIC (C. jejuni Au-38) | MIC (C. jejuni Au-44) | MIC (C. jejuni Au-39) | MIC (C. jejuni Au-45) | MIC (C. coli ATCC33559)

CCOC(=O)C1CCN(CC(=O)Nc2cccc3cccnc23)CC1 [T5]
Ef: Commensal/beneficial gut bacteria inhibited at 6.25 μg/mL (species) [1]
> 5 µg/mL: MBC (C. jejuni Au-32) | MBC (C. jejuni Au-50) | MBC (C. jejuni Au-39) | MBC (C. jejuni Au-45)
5 µg/mL: MBC (C. jejuni Au-24) | MIC (C. jejuni Au-32) | MBC (C. jejuni Au-20) | MBC (C. jejuni Au-47) | MBC (C. jejuni Au-38) | MIC (C. jejuni Au-50) | MBC (C. jejuni Au-44) | MIC (C. jejuni Au-39) | MIC (C. jejuni Au-45)
2.5 µg/mL: MIC (C. jejuni Au-24) | MIC (C. jejuni Au-20) | MIC (C. jejuni Au-47) | MIC (C. jejuni Au-38) | MIC (C. jejuni Au-44)
1.24 µg/mL: MBC (C. jejuni Au-13)
0.01 µg/mL: MIC (C. jejuni 81–176) | C. jejuni 81–176 in vitro MIC (C. jejuni 81–176)
12/12: Growth inhibition at 6.25 μg/mL, Campylobacter spp. (strains inhibited/tested) [3]
1/7: Growth inhibition at 6.25 μg/mL, Commensal/beneficial gut bacteria (strains inhibited/tested) [1]
0.04 µg/mL: MBC (C. coli ATCC33559) | MBC (C. jejuni 81–176) | C. jejuni 81–176 in vitro MBC (C. jejuni 81–176)
0.02 µg/mL: MIC (C. coli ATCC33559)
0.62 µg/mL: MIC (C. jejuni Au-13)

CC(C)n1c(S)nc2c1c(=O)[nH]c(=O)n2C [T6]
1.25 µg/mL: MIC (C. jejuni Au-24) | MIC (C. jejuni Au-32) | MIC (C. jejuni Au-20) | MIC (C. jejuni Au-47) | MIC (C. jejuni Au-38) | MIC (C. jejuni Au-50) | MIC (C. jejuni Au-44) | MIC (C. jejuni Au-39) | MIC (C. jejuni Au-45) | MIC (C. coli ATCC33559) | MIC (C. jejuni Au-13) | MIC (C. jejuni 81–176) | C. jejuni 81–176 in vitro MIC (C. jejuni 81–176)
12/12: Growth inhibition at 6.25 μg/mL, Campylobacter spp. (strains inhibited/tested) [3]
2.5 µg/mL: MBC (C. jejuni Au-24) | MBC (C. jejuni Au-32) | MBC (C. jejuni Au-20) | MBC (C. jejuni Au-47) | MBC (C. jejuni Au-38) | MBC (C. jejuni Au-50) | MBC (C. jejuni Au-44) | MBC (C. jejuni Au-39) | MBC (C. jejuni Au-45) | MBC (C. coli ATCC33559) | MBC (C. jejuni Au-13) | MBC (C. jejuni 81–176) | C. jejuni 81–176 in vitro MBC (C. jejuni 81–176)
0/7: Growth inhibition at 6.25 μg/mL, Commensal/beneficial gut bacteria (strains inhibited/tested) [1]

[N-]=[N+]=[N-] [azide]
30%: inhibition of FDH activity (FDH)
